Reference: paper PMC5218480 (PLoS ONE, 2017)

Test system: MV-4-11 cells
Assay: Gene expression microarray analysis (Affymetrix PrimeView) and GSEA
Assay type: cell-based, human
Set-up: RFU PODN (11730768_x_at) / Fold change /veh PODN (11730768_x_at) / RFU LINC00158 (11744669_a_at) / Fold change /veh LINC00158 (11744669_a_at) / RFU DUSP10 (11751237_a_at) / Fold change /veh DUSP10 (11751237_a_at) / RFU ID3 (11757404_x_at) / Fold change /veh ID3 (11757404_x_at) / RFU PLEKHG5 (11737974_s_at) / Fold change /veh PLEKHG5 (11737974_s_at) / RFU LRRC4B (11730491_at) / Fold change /veh LRRC4B (11730491_at) / RFU GIMAP4 (11747438_a_at) / Fold change /veh GIMAP4 (11747438_a_at) / RFU KRT8 (11758183_x_at) / Fold change /veh KRT8 (11758183_x_at) / RFU CNN1 (11734310_a_at) / Fold change /veh CNN1 (11734310_a_at) / RFU VPS37D (11726825_at) / Fold change /veh VPS37D (11726825_at) / RFU C10orf10 (11716522_x_at) / Fold change /veh C10orf10 (11716522_x_at) / RFU KIR2DL2 /// KIR2DL4 /// KIR2DL5A /// KIR2DL5B /// KIR2DS1 /// KIR2DS2 /// KIR2DS3 /// KIR2DS4 /// KIR3DL3 /// KIR3DL3 /// KIR3DS1 (11738374_at) / Fold change /veh KIR2DL2 /// KIR2DL4 /// KIR2DL5A /// KIR2DL5B /// KIR2DS1 /// KIR2DS2 /// KIR2DS3 /// KIR2DS4 /// KIR3DL3 /// KIR3DL3 /// KIR3DS1 (11738374_at) / RFU C1QL1 (11718748_at) / Fold change /veh C1QL1 (11718748_at) / RFU TMPRSS4 (11747572_a_at) / Fold change /veh TMPRSS4 (11747572_a_at) / RFU HAMP (11756126_x_at) / Fold change /veh HAMP (11756126_x_at) / RFU RNFT2 (11725882_a_at) / Fold change /veh RNFT2 (11725882_a_at) / RFU NR4A2 (11747474_a_at) / Fold change /veh NR4A2 (11747474_a_at) / RFU ABCC12 (11746883_a_at) / Fold change /veh ABCC12 (11746883_a_at) / RFU TMEM136 (11760407_x_at) / Fold change /veh TMEM136 (11760407_x_at) / RFU CLDN22 /// WWC2 (11732394_at) / Fold change /veh CLDN22 /// WWC2 (11732394_at) / RFU HLA-DPB1 (11760878_x_at) / Fold change /veh HLA-DPB1 (11760878_x_at) / RFU SPINT1 (11716480_a_at) / Fold change /veh SPINT1 (11716480_a_at) / RFU GAP43 (11754022_s_at) / Fold change /veh GAP43 (11754022_s_at) / RFU A4GNT (11735810_at) / Fold change /veh A4GNT (11735810_at) / RFU PRB3 (11715151_x_at) / Fold change /veh PRB3 (11715151_x_at) / RFU TUBB4B (11761932_at) / Fold change /veh TUBB4B (11761932_at) / RFU CAPN14 (11732068_a_at) / Fold change /veh CAPN14 (11732068_a_at) / RFU TMCC2 (11721928_a_at) / Fold change /veh TMCC2 (11721928_a_at) / RFU IRGQ (11745062_a_at) / Fold change /veh IRGQ (11745062_a_at) / RFU FAM174B (11720279_a_at) / Fold change /veh FAM174B (11720279_a_at) / RFU TMPRSS4 (11748680_a_at) / Fold change /veh TMPRSS4 (11748680_a_at) / RFU FAM212B (11763350_a_at) / Fold change /veh FAM212B (11763350_a_at) / RFU PLEKHG5 (11743358_a_at) / Fold change /veh PLEKHG5 (11743358_a_at) / RFU ZSCAN30 (11745921_a_at) / Fold change /veh ZSCAN30 (11745921_a_at) / RFU CMKLR1 (11741424_a_at) / Fold change /veh CMKLR1 (11741424_a_at) / RFU LOC101060620 /// MAPK8IP1 (11723275_at) / Fold change /veh LOC101060620 /// MAPK8IP1 (11723275_at) / RFU SPTSSB (11747773_x_at) / Fold change /veh SPTSSB (11747773_x_at) / RFU PRSS12 (11739890_at) / Fold change /veh PRSS12 (11739890_at) / RFU BIN1 (11741810_x_at) / Fold change /veh BIN1 (11741810_x_at) / RFU WNT11 (11732464_a_at) / Fold change /veh WNT11 (11732464_a_at) / RFU C10orf10 (11716521_a_at) / Fold change /veh C10orf10 (11716521_a_at) / RFU C5orf56 (11738089_at) / Fold change /veh C5orf56 (11738089_at) / RFU CYB561 (11721691_x_at) / Fold change /veh CYB561 (11721691_x_at) / RFU ANKRD19P (11752326_a_at) / Fold change /veh ANKRD19P (11752326_a_at) / RFU OR2T12 /// OR2T33 /// OR2T8 (11738714_s_at) / Fold change /veh OR2T12 /// OR2T33 /// OR2T8 (11738714_s_at) / RFU VCAN (11748164_a_at) / Fold change /veh VCAN (11748164_a_at) / RFU JSRP1 (11732532_at) / Fold change /veh JSRP1 (11732532_at) / RFU KRTAP10-11 (11738290_x_at) / Fold change /veh KRTAP10-11 (11738290_x_at) / RFU MYO3A (11730013_a_at) / Fold change /veh MYO3A (11730013_a_at) / RFU EBF3 (11725865_a_at) / Fold change /veh EBF3 (11725865_a_at) / RFU CAMK2N1 (11719241_x_at) / Fold change /veh CAMK2N1 (11719241_x_at) / RFU C5orf56 (11738088_a_at) / Fold change /veh C5orf56 (11738088_a_at) / RFU OLFML3 (11715873_a_at) / Fold change /veh OLFML3 (11715873_a_at) / RFU LOC100653217 /// NTM (11731650_a_at) / Fold change /veh LOC100653217 /// NTM (11731650_a_at) / RFU MAPK11 (11762145_a_at) / Fold change /veh MAPK11 (11762145_a_at) / RFU FIZ1 (11724087_x_at) / Fold change /veh FIZ1 (11724087_x_at) / RFU OASL (11726364_x_at) / Fold change /veh OASL (11726364_x_at) / RFU SOX15 (11748057_x_at) / Fold change /veh SOX15 (11748057_x_at) / RFU CD79A (11719716_a_at) / Fold change /veh CD79A (11719716_a_at) / RFU HIST1H1D (11736915_at) / Fold change /veh HIST1H1D (11736915_at) / RFU CASKIN2 (11723855_a_at) / Fold change /veh CASKIN2 (11723855_a_at) / RFU LOC730098 (11760151_x_at) / Fold change /veh LOC730098 (11760151_x_at) / RFU OR4N2 (11742367_at) / Fold change /veh OR4N2 (11742367_at) / RFU PRRT2 (11749266_a_at) / Fold change /veh PRRT2 (11749266_a_at) / RFU SNX32 (11753110_a_at) / Fold change /veh SNX32 (11753110_a_at) / RFU CDHR5 (11726645_a_at) / Fold change /veh CDHR5 (11726645_a_at) / RFU RCAN1 (11760418_a_at) / Fold change /veh RCAN1 (11760418_a_at) / RFU FAM167A (11723789_a_at) / Fold change /veh FAM167A (11723789_a_at) / RFU FAM26E (11764081_at) / Fold change /veh FAM26E (11764081_at) / RFU ISYNA1 (11749810_s_at) / Fold change /veh ISYNA1 (11749810_s_at) / RFU ACY1 (11761880_at) / Fold change /veh ACY1 (11761880_at) / RFU 11764098_at / Fold change /veh 11764098_at / RFU SAMD14 (11745864_x_at) / Fold change /veh SAMD14 (11745864_x_at) / RFU NPB (11741838_a_at) / Fold change /veh NPB (11741838_a_at) / RFU TMPRSS6 (11731388_a_at) / Fold change /veh TMPRSS6 (11731388_a_at) / RFU KRTAP10-2 (11738614_at) / Fold change /veh KRTAP10-2 (11738614_at) / RFU ARHGAP8 /// PRR5-ARHGAP8 (11727945_x_at) / Fold change /veh ARHGAP8 /// PRR5-ARHGAP8 (11727945_x_at) / RFU KRTAP5-7 /// NADSYN1 (11734609_at) / Fold change /veh KRTAP5-7 /// NADSYN1 (11734609_at) / RFU RASL12 (11751679_a_at) / Fold change /veh RASL12 (11751679_a_at) / RFU CDKN2B (11736163_a_at) / Fold change /veh CDKN2B (11736163_a_at) / RFU PRF1 (11729649_at) / Fold change /veh PRF1 (11729649_at) / RFU, ZNF638 /// ZNF638-IT1 / Fold change vs veh, ZNF638 /// ZNF638-IT1 / RFU, PANK3 / Fold change vs veh, PANK3 / RFU, SH3YL1 / Fold change vs veh, SH3YL1 / RFU, ZEB2 / Fold change vs veh, ZEB2 / RFU, NRIP1 / Fold change vs veh, NRIP1 / RFU, PTTG1IP / Fold change vs veh, PTTG1IP / RFU, CAPN2 / Fold change vs veh, CAPN2 / RFU, MED14 / Fold change vs veh, MED14 / RFU, SNORA58 / Fold change vs veh, SNORA58 / RFU, C1orf63 / Fold change vs veh, C1orf63 / RFU, LRRFIP1 / Fold change vs veh, LRRFIP1 / RFU, NDUFAF7 / Fold change vs veh, NDUFAF7 / RFU, SLC12A2 / Fold change vs veh, SLC12A2 / RFU, IBTK / Fold change vs veh, IBTK / RFU, ESF1 / Fold change vs veh, ESF1 / Fold change vs veh, TMEM50B / RFU, TAOK1 / Fold change vs veh, TAOK1 / RFU, ACBD3 / Fold change vs veh, ACBD3 / RFU, TMA16 / Fold change vs veh, TMA16 / RFU, RWDD3 / Fold change vs veh, RWDD3 / RFU, BCAT1 / Fold change vs veh, BCAT1 / RFU, EDEM3 / Fold change vs veh, EDEM3 / RFU, TMEM33 / Fold change vs veh, TMEM33 / RFU, WDR75 / Fold change vs veh, WDR75 / RFU, AHCTF1 / Fold change vs veh, AHCTF1 / RFU, TFRC / Fold change vs veh, TFRC / RFU, ZDHHC17 / Fold change vs veh, ZDHHC17 / RFU, NOM1 / Fold change vs veh, NOM1 / RFU, ARL8B / Fold change vs veh, ARL8B / RFU, ZBTB11 / Fold change vs veh, ZBTB11 / RFU, TAMM41 / Fold change vs veh, TAMM41 / RFU, KIAA1704 /// LOC100996395 / Fold change vs veh, KIAA1704 /// LOC100996395 / RFU, ING1 / Fold change vs veh, ING1 / RFU, TRMT61B / Fold change vs veh, TRMT61B / RFU, FUBP3 / Fold change vs veh, FUBP3 / RFU, TP53 / Fold change vs veh, TP53 / RFU, TNKS2 / Fold change vs veh, TNKS2 / RFU, ZFP14 / Fold change vs veh, ZFP14 / RFU, ACTR2 / Fold change vs veh, ACTR2 / RFU, PPP3R1 / Fold change vs veh, PPP3R1 / RFU, PIK3R1 / Fold change vs veh, PIK3R1 / RFU, HNRNPA1 / Fold change vs veh, HNRNPA1 / RFU, RNF170 / Fold change vs veh, RNF170 / RFU, ZNF28 / Fold change vs veh, ZNF28 / RFU, RNGTT / Fold change vs veh, RNGTT / RFU, OGT / Fold change vs veh, OGT / RFU, BRD1 / Fold change vs veh, BRD1 / RFU, MARS / Fold change vs veh, MARS / RFU, ZNF655 / Fold change vs veh, ZNF655 / RFU, FAHD1 / Fold change vs veh, FAHD1 / RFU, BDP1 / Fold change vs veh, BDP1 / RFU, LRRCC1 / Fold change vs veh, LRRCC1 / RFU, ARID1A / Fold change vs veh, ARID1A / RFU, ZNF146 / Fold change vs veh, ZNF146 / RFU, ZNF330 / Fold change vs veh, ZNF330 / RFU, GPN3 / Fold change vs veh, GPN3 / RFU, C9orf123 / Fold change vs veh, C9orf123 / RFU, N4BP2L2 / Fold change vs veh, N4BP2L2 / RFU, ARFIP1 / Fold change vs veh, ARFIP1 / RFU, FAM179B / Fold change vs veh, FAM179B / RFU, BCL10 / Fold change vs veh, BCL10 / RFU, UHRF1BP1L / Fold change vs veh, UHRF1BP1L / RFU, BET1 / Fold change vs veh, BET1 / RFU, CNOT2 / Fold change vs veh, CNOT2 / RFU, ZNF268 / Fold change vs veh, ZNF268 / Fold change vs veh, ZNF507 / RFU, DGCR2 / Fold change vs veh, DGCR2 / RFU, WDSUB1 / Fold change vs veh, WDSUB1 / Fold change vs veh, HSP90B1 /// MIR3652 / RFU, ADSS / Fold change vs veh, ADSS / RFU, GK / Fold change vs veh, GK / RFU, ZNF148 / Fold change vs veh, ZNF148 / RFU, TAF9 / Fold change vs veh, TAF9 / RFU, SLC1A5 / Fold change vs veh, SLC1A5 / RFU, SLMO2 / Fold change vs veh, SLMO2 / RFU, ABCC4 / Fold change vs veh, ABCC4 / RFU, LOC101060439 /// RAP1B / Fold change vs veh, LOC101060439 /// RAP1B / RFU, RFX7 / Fold change vs veh, RFX7 / RFU, GTPBP10 / Fold change vs veh, GTPBP10 / RFU, CNEP1R1 / Fold change vs veh, CNEP1R1 / RFU, BIVM-ERCC5 /// ERCC5 / Fold change vs veh, BIVM-ERCC5 /// ERCC5 / RFU, ILF3 / Fold change vs veh, ILF3 / RFU 11762660_at / Fold change /veh 11762660_at / RFU VCAN (11757783_s_at) / Fold change /veh VCAN (11757783_s_at) / RFU DDX43 (11728927_at) / Fold change /veh DDX43 (11728927_at) / RFU KRT8 (11758188_x_at) / Fold change /veh KRT8 (11758188_x_at) / RFU NKD1 (11759106_at) / Fold change /veh NKD1 (11759106_at) / RFU SRD5A1 (11742802_a_at) / Fold change /veh SRD5A1 (11742802_a_at) / RFU TPSAB1 /// TPSB2 (11721975_s_at) / Fold change /veh TPSAB1 /// TPSB2 (11721975_s_at) / RFU GSTM3 (11746129_a_at) / Fold change /veh GSTM3 (11746129_a_at) / RFU IL23R (11737362_x_at) / Fold change /veh IL23R (11737362_x_at) / RFU TMEM51 (11727254_a_at) / Fold change /veh TMEM51 (11727254_a_at) / RFU PIWIL2 (11732686_x_at) / Fold change /veh PIWIL2 (11732686_x_at) / RFU ORM1 (11744905_x_at) / Fold change /veh ORM1 (11744905_x_at) / RFU CCDC152 (11743942_at) / Fold change /veh CCDC152 (11743942_at) / RFU ECM1 (11717891_a_at) / Fold change /veh ECM1 (11717891_a_at) / RFU IL23R (11748794_a_at) / Fold change /veh IL23R (11748794_a_at) / RFU TNFAIP8L3 (11732012_x_at) / Fold change /veh TNFAIP8L3 (11732012_x_at) / RFU MBOAT4 (11741988_at) / Fold change /veh MBOAT4 (11741988_at) / RFU 11764193_at / Fold change /veh 11764193_at / RFU TMEM53 (11763286_at) / Fold change /veh TMEM53 (11763286_at) / RFU MAGEB2 (11727129_at) / Fold change /veh MAGEB2 (11727129_at) / RFU TMEM200A (11744735_a_at) / Fold change /veh TMEM200A (11744735_a_at) / RFU CCDC152 (11751479_a_at) / Fold change /veh CCDC152 (11751479_a_at) / RFU FAM211A (11726209_a_at) / Fold change /veh FAM211A (11726209_a_at) / RFU RGS16 (11746705_a_at) / Fold change /veh RGS16 (11746705_a_at) / RFU VCAN (11755009_s_at) / Fold change /veh VCAN (11755009_s_at) / RFU RHOB (11743442_s_at) / Fold change /veh RHOB (11743442_s_at) / RFU RGS16 (11720943_a_at) / Fold change /veh RGS16 (11720943_a_at) / RFU RGS16 (11720944_at) / Fold change /veh RGS16 (11720944_at) / RFU, VPS4B / Fold change vs veh, VPS4B / RFU, CREB1 / Fold change vs veh, CREB1 / RFU, DNAJC13 / Fold change vs veh, DNAJC13 / RFU, GNAQ / Fold change vs veh, GNAQ / RFU, CDK5R1 / Fold change vs veh, CDK5R1 / RFU, ZRANB3 / Fold change vs veh, ZRANB3 / RFU, CUL4A / Fold change vs veh, CUL4A / RFU, CCNY / Fold change vs veh, CCNY / RFU, UFL1 / Fold change vs veh, UFL1 / RFU, COG3 / Fold change vs veh, COG3 / RFU, DIAPH2 / Fold change vs veh, DIAPH2 / RFU, SKA2 / Fold change vs veh, SKA2 / RFU, AFF3 / Fold change vs veh, AFF3 / RFU, LMF1 / Fold change vs veh, LMF1 / RFU, IPO11 / Fold change vs veh, IPO11 / RFU, DFFB / Fold change vs veh, DFFB / RFU, FOXP1 / Fold change vs veh, FOXP1 / RFU, CARD8 / Fold change vs veh, CARD8 / RFU, STRN3 / Fold change vs veh, STRN3 / RFU, ADK / Fold change vs veh, ADK / RFU, RASSF2 / Fold change vs veh, RASSF2 / RFU, WIPF1 / Fold change vs veh, WIPF1 / RFU, LARP1B / Fold change vs veh, LARP1B / RFU, RASA1 / Fold change vs veh, RASA1 / RFU, RB1 / Fold change vs veh, RB1 / RFU, PPFIA1 / Fold change vs veh, PPFIA1 / RFU, MAT2A / Fold change vs veh, MAT2A / RFU, CCT5 / Fold change vs veh, CCT5 / RFU, WDR92 / Fold change vs veh, WDR92 / RFU, CUX1 / Fold change vs veh, CUX1 / RFU, TTC7A / Fold change vs veh, TTC7A / RFU, TMEM135 / Fold change vs veh, TMEM135 / RFU, DEPTOR / Fold change vs veh, DEPTOR / RFU, CPM / Fold change vs veh, CPM / RFU, DNAJB6 / Fold change vs veh, DNAJB6 / RFU, CACNA2D3 / Fold change vs veh, CACNA2D3 / RFU, DTX4 / Fold change vs veh, DTX4 / RFU, TFCP2 / Fold change vs veh, TFCP2 / RFU, GMCL1 /// GMCL1P1 / Fold change vs veh, GMCL1 /// GMCL1P1 / RFU, AEBP2 / Fold change vs veh, AEBP2 / RFU, SNHG1 /// SNORD22 /// SNORD25 /// SNORD26 /// SNORD27 /// SNORD28 /// SNORD29 /// SNORD31 / Fold change vs veh, SNHG1 /// SNORD22 /// SNORD25 /// SNORD26 /// SNORD27 /// SNORD28 /// SNORD29 /// SNORD31 / Fold change (Aza/veh), C12orf56 (ProbeSet 11735607_a_at) / Fold change (ACY-1035/veh), C12orf56 (ProbeSet 11735607_a_at) / Fold change (Aza/veh), FGFR1OP (ProbeSet 11751329_s_at) / Fold change (ACY-1035/veh), FGFR1OP (ProbeSet 11751329_s_at) / Fold change (Aza/veh), VPS36 (ProbeSet 11739960_a_at) / Fold change (ACY-1035/veh), VPS36 (ProbeSet 11739960_a_at) / RFU SYPL1 (11715823_x_at) / Fold change /veh SYPL1 (11715823_x_at) / RFU IGFBP7 (11715501_s_at) / Fold change /veh IGFBP7 (11715501_s_at) / RFU REEP3 (11722064_at) / Fold change /veh REEP3 (11722064_at) / RFU IGLL1 (11728026_x_at) / Fold change /veh IGLL1 (11728026_x_at): dose or concentration left out as unconfirmed
Conditions: ProbeSet 11725217_a_at; LIST B

Nc1ccc(-c2cccs2)cc1NC(=O)c1ccc2c(c1)cc(C1CC1)n2CCN1CCOCC1 [ACY-1035]
Fold change vs veh, WDSUB1: 1.02
